# Data as given in PMC5572761 (Journal of medicinal chemistry, 2017).
# Where a SMILES comes first, the peptide text is derived from it. Bridges are numbered along the chain shown (N, C = ends).
# Columns and labels:
# rat α6/α3β4 nAChR = rat α6/α3β4 nAChR (Rattus norvegicus, UniProt P04757+P12392+P43143); assay type: cell-based
# rat α3β4 nAChR = rat α3β4 nAChR (Rattus norvegicus, UniProt P04757+P12392); assay type: cell-based
# Chain of rat α3β4 nAChR (P04757 26-499 limits assumed): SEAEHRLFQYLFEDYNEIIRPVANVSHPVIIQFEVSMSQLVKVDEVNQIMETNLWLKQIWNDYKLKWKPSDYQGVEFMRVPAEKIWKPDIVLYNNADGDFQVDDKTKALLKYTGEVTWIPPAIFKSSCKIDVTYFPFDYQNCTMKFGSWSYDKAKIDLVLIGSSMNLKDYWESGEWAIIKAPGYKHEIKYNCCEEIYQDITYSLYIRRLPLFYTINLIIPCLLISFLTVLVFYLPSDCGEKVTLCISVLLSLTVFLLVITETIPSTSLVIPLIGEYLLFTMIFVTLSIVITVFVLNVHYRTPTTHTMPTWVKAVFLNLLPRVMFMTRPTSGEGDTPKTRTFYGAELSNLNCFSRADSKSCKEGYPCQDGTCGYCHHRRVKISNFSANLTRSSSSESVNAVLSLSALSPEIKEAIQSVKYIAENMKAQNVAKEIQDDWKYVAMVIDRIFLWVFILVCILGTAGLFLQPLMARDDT
# Chain of rat α3β4 nAChR (P12392 21-495 limits assumed): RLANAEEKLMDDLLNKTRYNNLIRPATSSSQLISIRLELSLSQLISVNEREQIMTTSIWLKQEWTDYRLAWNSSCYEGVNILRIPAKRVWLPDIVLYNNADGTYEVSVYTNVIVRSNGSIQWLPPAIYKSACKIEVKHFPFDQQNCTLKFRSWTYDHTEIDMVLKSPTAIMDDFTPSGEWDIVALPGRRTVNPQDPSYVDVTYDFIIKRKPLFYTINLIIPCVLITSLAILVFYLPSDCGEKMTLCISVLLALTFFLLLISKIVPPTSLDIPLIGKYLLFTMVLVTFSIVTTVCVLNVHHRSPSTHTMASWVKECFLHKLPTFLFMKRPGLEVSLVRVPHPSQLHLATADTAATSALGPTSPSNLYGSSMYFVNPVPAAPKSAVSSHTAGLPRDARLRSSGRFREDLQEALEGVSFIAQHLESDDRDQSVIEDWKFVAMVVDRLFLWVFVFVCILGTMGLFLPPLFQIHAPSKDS
# Chain of rat α6/α3β4 nAChR (P04757 whole entry, looked up): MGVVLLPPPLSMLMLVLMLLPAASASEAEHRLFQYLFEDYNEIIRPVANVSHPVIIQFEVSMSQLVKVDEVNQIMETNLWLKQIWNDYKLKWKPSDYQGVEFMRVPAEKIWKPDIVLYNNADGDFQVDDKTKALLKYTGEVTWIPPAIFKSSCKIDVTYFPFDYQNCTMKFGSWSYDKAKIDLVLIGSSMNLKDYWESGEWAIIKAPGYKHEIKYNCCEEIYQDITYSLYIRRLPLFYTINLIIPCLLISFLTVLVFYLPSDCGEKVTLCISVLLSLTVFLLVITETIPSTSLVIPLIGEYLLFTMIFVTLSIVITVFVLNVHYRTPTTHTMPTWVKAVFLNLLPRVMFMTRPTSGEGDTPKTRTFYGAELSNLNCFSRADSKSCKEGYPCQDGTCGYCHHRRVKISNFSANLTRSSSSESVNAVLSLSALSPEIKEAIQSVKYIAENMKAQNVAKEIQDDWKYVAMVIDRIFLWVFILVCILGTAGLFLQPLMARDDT
# Chain of rat α6/α3β4 nAChR (P12392 whole entry, looked up): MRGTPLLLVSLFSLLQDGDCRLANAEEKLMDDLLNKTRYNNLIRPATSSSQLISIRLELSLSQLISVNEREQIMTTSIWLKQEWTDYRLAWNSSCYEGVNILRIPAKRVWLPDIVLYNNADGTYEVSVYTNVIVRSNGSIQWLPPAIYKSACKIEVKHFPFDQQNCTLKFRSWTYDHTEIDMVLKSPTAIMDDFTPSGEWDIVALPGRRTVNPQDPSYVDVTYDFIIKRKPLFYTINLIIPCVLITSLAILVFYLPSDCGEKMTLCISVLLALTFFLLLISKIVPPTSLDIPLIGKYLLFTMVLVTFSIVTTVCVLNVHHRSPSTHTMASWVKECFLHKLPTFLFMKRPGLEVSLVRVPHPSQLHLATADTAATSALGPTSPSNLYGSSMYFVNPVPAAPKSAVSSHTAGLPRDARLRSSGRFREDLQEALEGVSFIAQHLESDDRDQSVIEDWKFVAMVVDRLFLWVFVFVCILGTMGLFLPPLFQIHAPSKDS
# Chain of rat α6/α3β4 nAChR (P43143 whole entry, looked up): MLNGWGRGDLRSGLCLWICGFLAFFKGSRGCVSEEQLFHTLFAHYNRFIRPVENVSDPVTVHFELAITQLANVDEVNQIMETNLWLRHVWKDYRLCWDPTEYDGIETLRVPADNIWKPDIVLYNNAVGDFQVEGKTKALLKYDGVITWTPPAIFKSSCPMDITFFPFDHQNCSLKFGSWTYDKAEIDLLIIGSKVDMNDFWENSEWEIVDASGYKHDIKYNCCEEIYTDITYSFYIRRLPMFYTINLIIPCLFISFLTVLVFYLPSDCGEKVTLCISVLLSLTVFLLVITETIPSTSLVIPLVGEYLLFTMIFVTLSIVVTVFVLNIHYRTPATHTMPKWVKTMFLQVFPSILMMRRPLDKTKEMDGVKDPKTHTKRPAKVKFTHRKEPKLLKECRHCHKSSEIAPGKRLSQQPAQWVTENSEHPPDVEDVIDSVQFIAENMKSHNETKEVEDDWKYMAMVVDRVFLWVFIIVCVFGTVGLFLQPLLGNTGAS
SMILES,Hill slope n^H α6/α3β4 (rat α6/α3β4 nAChR),α6/α3β4 IC50 ratio relative to 1 (rat α6/α3β4 nAChR),Hill slope n^H α3β4 (rat α3β4 nAChR),α3β4 IC50 ratio relative to 1 (rat α3β4 nAChR)
"CSCC[C@@H]1NC(=O)[C@H](C)NC(=O)[C@H](CO)NC(=O)[C@@H]2CSSC[C@H](NC(=O)CN)C(=O)N[C@@H](CSSC[C@@H](C(N)=O)NC(=O)[C@H](CC(=O)O)NC(=O)[C@@H]3CCCN3C(=O)[C@H](CO)NC1=O)C(=O)N[C@@H](CO)C(=O)N[C@@H](Cc1c[nH]cn1)C(=O)N1CCC[C@H]1C(=O)N[C@@H](C(C)C)C(=O)N2 [Peptide 14] (H-GCCSHPVCSAMSPDC-NH2; disulfide 2-8, 3-15)",0.84 (0.69–0.98),1.2,1.33 (0.387–2.26),2.7
"CSCC[C@@H]1NC(=O)[C@H](C)NC(=O)[C@H](CO)NC(=O)[C@@H]2CSSC[C@H](NC(=O)CN)C(=O)N[C@@H](CSSC[C@@H](C(N)=O)NC(=O)[C@H](C)NC(=O)[C@@H]3CCCN3C(=O)[C@H](CO)NC1=O)C(=O)N[C@@H](CO)C(=O)N[C@@H](Cc1c[nH]cn1)C(=O)N1CCC[C@H]1C(=O)N[C@@H](C(C)C)C(=O)N2 [Peptide 11] (H-GCCSHPVCSAMSPAC-NH2; disulfide 2-8, 3-15)",1.04 (0.77–1.32),1.3,1.05 (0.39–1.70),4.4
